In the supplement of paper PMC4862054:

Tested on: MDA-MB-468
Assay: normalised response (% of control), CellTiter-Glo; higher = more viable cells (100 = DMSO, 0 = benzethonium chloride kill control)
Settings: incubation time: 72 h
Description: (§1)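 DSRT, 72 h incubation, CellTox Green / CellTiter-Glo readout. Signal is normalised to DMSO and benzethonium chloride controls. Value is the normalised response at the highest dose.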

Row | Structure (SMILES) | normalised response [%]
1 | C[C@]12CC[C@@H]3c4ccc(O)cc4C[C@@H](CCCCCCCCC[S+]([O-])CCCC(F)(F)C(F)(F)F)[C@H]3[C@@H]1CC[C@@H]2O (stereo partly specified) [Fulvestrant] (1000 nM) | 96

Tested on: HCC1599
Assay: as above
Settings: incubation time: 72 h
Description: as §1

Row | Structure (SMILES) | normalised response [%]
2 | O=C1CCC(N2C(=O)c3ccccc3C2=O)C(=O)N1 (stereo unspecified) [Thalidomide] (10000 nM) | 101
3 | Oc1nc(-c2ccc(C(F)(F)F)cc2)nc2c1CSCC2 [XAV-939] (10000 nM) | 80.6
4 | O=P1(NCCCl)OCCCN1CCCl (stereo unspecified) [Ifosfamide] (10000 nM) | 110
5 | Clc1ccc(Nc2nnc(Cc3ccncc3)c3ccccc23)cc1 [Vatalanib] (10000 nM) | 91.5
6 | C[C@@H](Oc1cc(-c2cnn(C3CCNCC3)c2)cnc1N)c1c(Cl)ccc(F)c1Cl [Crizotinib] (1000 nM) | 100
7 | CCC1(c2ccc(N)cc2)CCC(=O)NC1=O (stereo unspecified) [Aminoglutethimide] (10000 nM) | 108
8 | Cc1ccc(C(=O)N(CCCN)[C@@H](c2oc3cc(Cl)ccc3c(=O)c2Cc2ccccc2)C(C)C)cc1 (100 nM) | 97.5
9 | Cn1c(CCCC(=O)O)nc2cc(N(CCCl)CCCl)ccc21 [Bendamustine] (10000 nM) | 96.6
10 | CN[C@@H]1C[C@H]2O[C@@](C)([C@@H]1OC)n1c3ccccc3c3c4c(c5c6ccccc6n2c5c31)C(=O)N[C@H]4O [UCN-01] (10000 nM) | 13.7
11 | C#Cc1cccc(Nc2ncnc3cc(OCCOC)c(OCCOC)cc23)c1 [Erlotinib] (10000 nM) | 92.7
12 | N.N.[Cl][Pt][Cl] [Cisplatin] (1000 nM) | 101
13 | Cn1c(Nc2ccc(C(F)(F)F)cc2)nc2cc(Oc3ccnc(-c4ncc(C(F)(F)F)[nH]4)c3)ccc21 [RAF265] (1000 nM) | 73.7
14 | C=C(c1ccc(C(=O)O)cc1)c1cc2c(cc1C)C(C)(C)CCC2(C)C [Bexarotene] (10000 nM) | 59.5
15 | C[C@]12CC[C@@H]3c4ccc(O)cc4C[C@@H](CCCCCCCCC[S+]([O-])CCCC(F)(F)C(F)(F)F)[C@H]3[C@@H]1CC[C@@H]2O (stereo partly specified) [Fulvestrant] (1000 nM) | 103

Tested on: MDA-MB-453
Assay: as above
Settings: incubation time: 72 h
Description: as §1

Row | Structure (SMILES) | normalised response [%]
16 | O=C1CCC(N2C(=O)c3ccccc3C2=O)C(=O)N1 (stereo unspecified) [Thalidomide] (10000 nM) | 97.2
17 | Oc1nc(-c2ccc(C(F)(F)F)cc2)nc2c1CSCC2 [XAV-939] (10000 nM) | 81.7
18 | O=P1(NCCCl)OCCCN1CCCl (stereo unspecified) [Ifosfamide] (10000 nM) | 94.5
19 | Clc1ccc(Nc2nnc(Cc3ccncc3)c3ccccc23)cc1 [Vatalanib] (10000 nM) | 90.3
20 | C[C@@H](Oc1cc(-c2cnn(C3CCNCC3)c2)cnc1N)c1c(Cl)ccc(F)c1Cl [Crizotinib] (1000 nM) | 92.2
21 | CCC1(c2ccc(N)cc2)CCC(=O)NC1=O (stereo unspecified) [Aminoglutethimide] (10000 nM) | 101
22 | Cc1ccc(C(=O)N(CCCN)[C@@H](c2oc3cc(Cl)ccc3c(=O)c2Cc2ccccc2)C(C)C)cc1 (100 nM) | 91.6
23 | Cn1c(CCCC(=O)O)nc2cc(N(CCCl)CCCl)ccc21 [Bendamustine] (10000 nM) | 120
24 | CN[C@@H]1C[C@H]2O[C@@](C)([C@@H]1OC)n1c3ccccc3c3c4c(c5c6ccccc6n2c5c31)C(=O)N[C@H]4O [UCN-01] (10000 nM) | 5.51
25 | C#Cc1cccc(Nc2ncnc3cc(OCCOC)c(OCCOC)cc23)c1 [Erlotinib] (10000 nM) | 90
26 | N.N.[Cl][Pt][Cl] [Cisplatin] (1000 nM) | 106
27 | Cn1c(Nc2ccc(C(F)(F)F)cc2)nc2cc(Oc3ccnc(-c4ncc(C(F)(F)F)[nH]4)c3)ccc21 [RAF265] (1000 nM) | 95.8
28 | C=C(c1ccc(C(=O)O)cc1)c1cc2c(cc1C)C(C)(C)CCC2(C)C [Bexarotene] (10000 nM) | 110
29 | C[C@]12CC[C@@H]3c4ccc(O)cc4C[C@@H](CCCCCCCCC[S+]([O-])CCCC(F)(F)C(F)(F)F)[C@H]3[C@@H]1CC[C@@H]2O (stereo partly specified) [Fulvestrant] (1000 nM) | 95.6

Tested on: MDA-MB-231
Assay: as above
Settings: incubation time: 72 h
Description: as §1

Row | Structure (SMILES) | normalised response [%]
30 | O=C1CCC(N2C(=O)c3ccccc3C2=O)C(=O)N1 (stereo unspecified) [Thalidomide] (10000 nM) | 94.2
31 | Oc1nc(-c2ccc(C(F)(F)F)cc2)nc2c1CSCC2 [XAV-939] (10000 nM) | 74.5
32 | O=P1(NCCCl)OCCCN1CCCl (stereo unspecified) [Ifosfamide] (10000 nM) | 90.5
33 | Clc1ccc(Nc2nnc(Cc3ccncc3)c3ccccc23)cc1 [Vatalanib] (10000 nM) | 101
34 | C[C@@H](Oc1cc(-c2cnn(C3CCNCC3)c2)cnc1N)c1c(Cl)ccc(F)c1Cl [Crizotinib] (1000 nM) | 83.9
35 | CCC1(c2ccc(N)cc2)CCC(=O)NC1=O (stereo unspecified) [Aminoglutethimide] (10000 nM) | 103
36 | Cc1ccc(C(=O)N(CCCN)[C@@H](c2oc3cc(Cl)ccc3c(=O)c2Cc2ccccc2)C(C)C)cc1 (100 nM) | 93
37 | Cn1c(CCCC(=O)O)nc2cc(N(CCCl)CCCl)ccc21 [Bendamustine] (10000 nM) | 109
38 | CN[C@@H]1C[C@H]2O[C@@](C)([C@@H]1OC)n1c3ccccc3c3c4c(c5c6ccccc6n2c5c31)C(=O)N[C@H]4O [UCN-01] (10000 nM) | 1.54
39 | C#Cc1cccc(Nc2ncnc3cc(OCCOC)c(OCCOC)cc23)c1 [Erlotinib] (10000 nM) | 83.4
40 | N.N.[Cl][Pt][Cl] [Cisplatin] (1000 nM) | 96.3
41 | Cn1c(Nc2ccc(C(F)(F)F)cc2)nc2cc(Oc3ccnc(-c4ncc(C(F)(F)F)[nH]4)c3)ccc21 [RAF265] (1000 nM) | 83.5
42 | C=C(c1ccc(C(=O)O)cc1)c1cc2c(cc1C)C(C)(C)CCC2(C)C [Bexarotene] (10000 nM) | 105
43 | C[C@]12CC[C@@H]3c4ccc(O)cc4C[C@@H](CCCCCCCCC[S+]([O-])CCCC(F)(F)C(F)(F)F)[C@H]3[C@@H]1CC[C@@H]2O (stereo partly specified) [Fulvestrant] (1000 nM) | 98.9

Tested on: HDQ-P1
Assay: as above
Settings: incubation time: 72 h
Description: as §1

Row | Structure (SMILES) | normalised response [%]
44 | O=C1CCC(N2C(=O)c3ccccc3C2=O)C(=O)N1 (stereo unspecified) [Thalidomide] (10000 nM) | 98.2
45 | Oc1nc(-c2ccc(C(F)(F)F)cc2)nc2c1CSCC2 [XAV-939] (10000 nM) | 86.7
46 | O=P1(NCCCl)OCCCN1CCCl (stereo unspecified) [Ifosfamide] (10000 nM) | 94
47 | Clc1ccc(Nc2nnc(Cc3ccncc3)c3ccccc23)cc1 [Vatalanib] (10000 nM) | 98.4
48 | C[C@@H](Oc1cc(-c2cnn(C3CCNCC3)c2)cnc1N)c1c(Cl)ccc(F)c1Cl [Crizotinib] (1000 nM) | 90.7
49 | CCC1(c2ccc(N)cc2)CCC(=O)NC1=O (stereo unspecified) [Aminoglutethimide] (10000 nM) | 102
50 | Cc1ccc(C(=O)N(CCCN)[C@@H](c2oc3cc(Cl)ccc3c(=O)c2Cc2ccccc2)C(C)C)cc1 (100 nM) | 104
51 | Cn1c(CCCC(=O)O)nc2cc(N(CCCl)CCCl)ccc21 [Bendamustine] (10000 nM) | 113
52 | CN[C@@H]1C[C@H]2O[C@@](C)([C@@H]1OC)n1c3ccccc3c3c4c(c5c6ccccc6n2c5c31)C(=O)N[C@H]4O [UCN-01] (10000 nM) | 2.74
53 | C#Cc1cccc(Nc2ncnc3cc(OCCOC)c(OCCOC)cc23)c1 [Erlotinib] (10000 nM) | 66.1
54 | N.N.[Cl][Pt][Cl] [Cisplatin] (1000 nM) | 95.3
55 | Cn1c(Nc2ccc(C(F)(F)F)cc2)nc2cc(Oc3ccnc(-c4ncc(C(F)(F)F)[nH]4)c3)ccc21 [RAF265] (1000 nM) | 47.2
56 | C=C(c1ccc(C(=O)O)cc1)c1cc2c(cc1C)C(C)(C)CCC2(C)C [Bexarotene] (10000 nM) | 106
57 | C[C@]12CC[C@@H]3c4ccc(O)cc4C[C@@H](CCCCCCCCC[S+]([O-])CCCC(F)(F)C(F)(F)F)[C@H]3[C@@H]1CC[C@@H]2O (stereo partly specified) [Fulvestrant] (1000 nM) | 101

Tested on: MFM-223
Assay: as above
Settings: incubation time: 72 h
Description: as §1

Row | Structure (SMILES) | normalised response [%]
58 | O=C1CCC(N2C(=O)c3ccccc3C2=O)C(=O)N1 (stereo unspecified) [Thalidomide] (10000 nM) | 100
59 | Oc1nc(-c2ccc(C(F)(F)F)cc2)nc2c1CSCC2 [XAV-939] (10000 nM) | 89.4
60 | O=P1(NCCCl)OCCCN1CCCl (stereo unspecified) [Ifosfamide] (10000 nM) | 90
61 | Clc1ccc(Nc2nnc(Cc3ccncc3)c3ccccc23)cc1 [Vatalanib] (10000 nM) | 110
62 | C[C@@H](Oc1cc(-c2cnn(C3CCNCC3)c2)cnc1N)c1c(Cl)ccc(F)c1Cl [Crizotinib] (1000 nM) | 97.4
63 | CCC1(c2ccc(N)cc2)CCC(=O)NC1=O (stereo unspecified) [Aminoglutethimide] (10000 nM) | 97.8
64 | Cc1ccc(C(=O)N(CCCN)[C@@H](c2oc3cc(Cl)ccc3c(=O)c2Cc2ccccc2)C(C)C)cc1 (100 nM) | 97.2
65 | Cn1c(CCCC(=O)O)nc2cc(N(CCCl)CCCl)ccc21 [Bendamustine] (10000 nM) | 106
66 | CN[C@@H]1C[C@H]2O[C@@](C)([C@@H]1OC)n1c3ccccc3c3c4c(c5c6ccccc6n2c5c31)C(=O)N[C@H]4O [UCN-01] (10000 nM) | 24.1
67 | C#Cc1cccc(Nc2ncnc3cc(OCCOC)c(OCCOC)cc23)c1 [Erlotinib] (10000 nM) | 78.1
68 | N.N.[Cl][Pt][Cl] [Cisplatin] (1000 nM) | 99.9
69 | Cn1c(Nc2ccc(C(F)(F)F)cc2)nc2cc(Oc3ccnc(-c4ncc(C(F)(F)F)[nH]4)c3)ccc21 [RAF265] (1000 nM) | 48
70 | C=C(c1ccc(C(=O)O)cc1)c1cc2c(cc1C)C(C)(C)CCC2(C)C [Bexarotene] (10000 nM) | 95.1
71 | C[C@]12CC[C@@H]3c4ccc(O)cc4C[C@@H](CCCCCCCCC[S+]([O-])CCCC(F)(F)C(F)(F)F)[C@H]3[C@@H]1CC[C@@H]2O (stereo partly specified) [Fulvestrant] (1000 nM) | 99.3

Tested on: CAL-120
Assay: as above
Settings: incubation time: 72 h
Description: as §1

Row | Structure (SMILES) | normalised response [%]
72 | O=C1CCC(N2C(=O)c3ccccc3C2=O)C(=O)N1 (stereo unspecified) [Thalidomide] (10000 nM) | 100
73 | Oc1nc(-c2ccc(C(F)(F)F)cc2)nc2c1CSCC2 [XAV-939] (10000 nM) | 92.8
74 | O=P1(NCCCl)OCCCN1CCCl (stereo unspecified) [Ifosfamide] (10000 nM) | 96.3
75 | Clc1ccc(Nc2nnc(Cc3ccncc3)c3ccccc23)cc1 [Vatalanib] (10000 nM) | 104
76 | C[C@@H](Oc1cc(-c2cnn(C3CCNCC3)c2)cnc1N)c1c(Cl)ccc(F)c1Cl [Crizotinib] (1000 nM) | 104
77 | CCC1(c2ccc(N)cc2)CCC(=O)NC1=O (stereo unspecified) [Aminoglutethimide] (10000 nM) | 109
78 | Cc1ccc(C(=O)N(CCCN)[C@@H](c2oc3cc(Cl)ccc3c(=O)c2Cc2ccccc2)C(C)C)cc1 (100 nM) | 103
79 | Cn1c(CCCC(=O)O)nc2cc(N(CCCl)CCCl)ccc21 [Bendamustine] (10000 nM) | 108
80 | CN[C@@H]1C[C@H]2O[C@@](C)([C@@H]1OC)n1c3ccccc3c3c4c(c5c6ccccc6n2c5c31)C(=O)N[C@H]4O [UCN-01] (10000 nM) | 7.18
81 | C#Cc1cccc(Nc2ncnc3cc(OCCOC)c(OCCOC)cc23)c1 [Erlotinib] (10000 nM) | 79.8
